In patent US11701361B2, “p110-delta inhibitors treat and prevent autoimmunity while sparing the ability to mount an immune response to exogenous immunogens” (THE REGENTS OF THE UNIVERSITY OF COLORADO, priority 2018, dated 2023):

Assays:
NOD mice = assay: antibody response of NOD mice to NP4Ova+Alum immunization on idelalisib chow; type: in vivo, mouse
Description: Diet dose (DD) is calculated by multiplying the single daily dose (SD) by the body weight of a mouse (BW) and dividing that by the daily food intake (FI) [DD=(SD×BW)/FI].
For VH125.NOD experiments animals are placed on control chow immediately after weaning.
HEL conjugated to SRBCs was used to produce antigen for experiments with MD4 B cells. SRBCs (Colorado Serum Company) were stored in Alsever's solution at 4° C. SRBCs are washed 3 times in PBS prior to use. 1 ml of 50 mg/ml of the chemical crosslinker N-(3-Dimethylaminopropyl)-N-ethylcarbodiimide hydrochloride (Sigma-Aldrich) was added to 1 ml packed SRBCs and 15 ml of 5 mg/ml HEL (Sigma-Aldrich), mixed and rotated at room temperature for 45 minutes. Mice were immunized IP with 200 μl of a 5% HEL-SRBC in PBS. For NP4Ova-Alum immunizations, 10 mg/ml alum and 5 mg/ml NP4Ova were mixed to a final concentration of 250 μg/ml NP4Ova and 2.5 mg/ml alum and rotated for 3 hours at room temperature. […] Mice were then immunized with NP4Ova-alum IP in 200 μl/mouse, and responses were measured on day 7 and day 14 post-immunization.
For detection of IgM^a anti-Ars antibodies, microtiter plates were coated with 10 μg/ml Ars-BSA16 in PBS and blocked with 2 mg/ml BSA in PBS 0.05% Tween-20. For detection of IgM^a anti-HEL antibodies, microtiter plates were coated with 10 μg/ml HEL in PBS and blocked with 2 mg/ml BSA in PBS 0.05% Tween-20. For detection of total NP-specific IgM and IgG, microtiter plates were coated with 20 μg/ml NP27BSA and blocked with 2 mg/ml BSA in PBS 0.05% Tween-20. For detection of high affinity NP-specific IgM and IgG, microtiter plates were coated with 20 μg/ml NP2BSA and blocked with 2 mg/ml BSA in PBS 0.05% Tween-20. Serial dilutions of mouse serum in PBS were added and incubated overnight at 4° C. Ars/A1-derived IgM^a antibodies and MD4-derived HEL IgM^a antibodies were detected with biotinylated DS.1 anti-IgM^a (BD Pharmingen) in PBS, followed by Streptavidin-HRP (Thermo Fisher Scientific). For NP-specific IgM antibodies were detected using goat-anti-mouse IgM-HRP (SouthernBiotech). For NP-specific IgG antibodies were detected using goat-anti-mouse IgG-HRP (SouthernBiotech). Between all steps, plates were washed 3 times with PBS 0.05% Tween-20. The ELISA was developed with TMB single solution (Invitrogen) and the reaction was stopped with 1M HCl. OD was measured at 450 nm using a VERSAMax plate reader (Molecular Devices) and data analyzed with SoftMax Pro6 software.
For detection of IgM^a anti-Ars antibodies, microtiter plates were coated with 10 μg/ml Ars-BSA16 in PBS and blocked with 2 mg/ml BSA in PBS 0.05% Tween-20. For detection of IgM^a anti-HEL antibodies, microtiter plates were coated with 10 μg/ml HEL in PBS and blocked with 2 mg/ml BSA in PBS 0.05% Tween-20. For detection of total NP-specific IgM and IgG, microtiter plates were coated with 20 μg/ml NP27BSA and blocked with 2 mg/ml BSA in PBS 0.05% Tween-20. For detection of high affinity NP-specific IgM and IgG, microtiter plates were coated with 20 μg/ml NP2BSA and blocked with 2 mg/ml BSA in PBS 0.05% Tween-20. Plates were washed 3 times prior to use with PBS 0.05% Tween-20. RBC-depleted single-cell suspension of splenocytes in complete medium were added in two-fold serial dilutions starting at 1/100th of a spleen in the first well. Plates were incubated overnight at 37° C. Ars/A1-derived IgM^a antibodies and MD4-derived HEL IgM^a antibodies were detected with biotinylated DS.1 anti-IgM^a (BD Pharmingen) in PBS, followed by Streptavidin-AP (SouthernBiotech). For NP-specific IgM antibodies were detected using goat-anti-mouse IgM-AP (SouthernBiotech). For NP-specific IgG antibodies were detected using goat-anti-mouse IgG-AP (SouthernBiotech). Between all steps, plates were washed 3 times with PBS 0.05% Tween-20. The plates were developed by incubated with ELISPOT developing buffer ([…] 5-bromochloro-3-indolyl phosphate p-toluidine, […], 100 mM Tris, and 10 mM MgCl2, pH 9.5) for 1 hour. […]

BTK = assay: phosphorylated signaling intermediaries after BCR stimulation: BTK; type: cell-based, mouse; conditions: all doses of inhibitor (15, 60, 490 nM), preincubation
Description: Cells are then washed 2× in serum free IMDM, and stimulated with 5 μg/ml of F(ab′)2 rabbit anti-mouse anti-IgG (H&L; Invitrogen) or 10 μg/ml anti-CD3-biotin (BD Biosciences)+20 μg/ml streptavidin (Sigma-Aldrich) for 2 minutes. Signaling was stopped by addition of 20% PFA to a final concentration of 2%, incubated at 37° C. for 15 minutes and resuspended in 100% ice-cold MeOH (directly from −80° C.). Cells were then placed on ice for 30 minutes and placed at −20° C. for storage. For analysis, cells were stained with B220-BV786, CD4-BV711, CD8-BV421, and/or pAKT-Alexa Fluor 647 (BD Biosciences), pPLCγ-PE (BD Biosciences), pBTK-BV421 (BD Biosciences) pSyk/Zap70-PE (BD Biosciences) at room temperature for 1 hour. Cells were washed 3 times and samples were acquired in triplicate on an LSR Fortessa X-20 (BD) with analysis using FlowJo software.

[1] = 0.9375 mg/kg chow, 14 days post-immunization, vs vehicle control
[2] = 0.9375 mg/kg chow, day 14 post-immunization, vs vehicle control

**Q.** How did the “anti-NP IgM response in the spleen” value (NOD mice; 0.9375 mg/kg chow for 4 weeks, 14 days post-immunization, vs vehicle control) turn out when `CC[C@H](Nc1ncnc2nc[nH]c12)c1nc2cccc(F)c2c(=O)n1-c1ccccc1` [idelalisib, 5-fluoro-3-phenyl-2-[(1S)-1-(7H-purin-6-ylamino)propyl]-4(3H)-quinazolinone] was run?
**A.** not different

**Q.** What about the “B cell numbers in the spleens” value (NOD mice; 0.9375 mg/kg chow vs vehicle control) of the same compound?
**A.** no difference

**Q.** And the “high affinity IgG anti-NP ASCs/spleen” value (NOD mice; [1])?
**A.** no observed difference

**Q.** And the “number of high-affinity IgM anti-NP ASCs/spleen” value (NOD mice; [1])?
**A.** equivalent

**Q.** And the “number of total anti-NP IgM antibody secreting cells (ASCs) per spleen” value (NOD mice; [1])?
**A.** equivalent

**Q.** And the “total IgG anti-NP ASCs/spleen” value (NOD mice; [1])?
**A.** no observed difference

**Q.** What about the “levels of IgG anti-NP found in the periphery” value (NOD mice; [2]) of the same compound?
**A.** equivalent

**Q.** And the “levels of IgM anti-NP found in the periphery” value (NOD mice; [2])?
**A.** equivalent

**Q.** And the “phosphorylation of BTK” value (BTK)?
**A.** significantly reduced
